Data reported in publication PMC6895180 (Nature Communications, 2019).
Several values for one entry are separate records, joined by “and”; a condition that tells them apart may be missing. Equal values may be shown once.

Tests used:
[1] = system: T. b. brucei AnTAR1.1 PPYRE9; assay: Mouse model of stage 2 HAT (BLI, parasitaemia, SL-RNA qPCR); format: in vivo; details: for BLI of the head region, RLU data: individual animals
Experimental: […] Treatment was initiated at 21 dpi. […] Mice were injected i.p. with […] of D-luciferin and anaesthetised using isoflurane. The luminescent signal was acquired from both the dorsal and ventral side of the animals. […] Animals subjected to the different treatment schemes (from 4 wpi) were additionally imaged over a 5 min exposure time for enhanced sensitivity. […] Tissues were weighed and RNA was extracted using the RNeasy Plus Mini Kit (Qiagen) according to the manufacturer’s recommendations. […] A list of primers used is provided in the Supplementary Methods section of the Supplementary Information. BLI images from the IVIS Spectrum In Vivo Imaging System (Perkin Elmer) were analysed using LivingImage v4.3.1. SoftWoRx suite 2.0 for microscopy (image deconvolution), then processing using the Fiji software.

T. brucei NY-SM cells = assay: Cell cycle analysis by flow cytometry; format: cell-based, Trypanosoma brucei
Experimental: After 24 h, the cells were harvested and washed with PBS before staining with Hoechst 33342 at 5 µg mL^−1 for 25 min at 37 °C. Cells were analysed on a MACSQuant flow cytometer (Miltenyi Biotec) using the FlowJo X software package.

[2] = Metabolic stability, rat liver microsomes (phase I and II)
Experimental: Mouse, rat, and pooled human liver microsomes were purchased from a commercial source (Corning) and stored at -80 °C. NADPH generating system solutions A and B and UGT reaction mix solutions A and B (Corning) were kept at -20°C. The test compound and the reference compounds diclofenac (MW […]
microsomal stability assay was carried out based on the BD Biosciences Guidelines for Use (TF000017 Rev1.0) with minor adaptations. Metabolic stability of the compounds was studied through the CYP450 superfamily (phase I metabolism) by fortification with reduced nicotinamide adenine dinucleotide phosphate (NADPH) and through uridine glucuronosyl-transferase (UGT) enzymes (phase II metabolism) by fortification with uridine diphosphate glucuronic acid (UDPGA). For the CYP450 and other NADPH dependent enzymes, both compounds were incubated at 5 µM together with 0.5 mg mL-1 liver microsomes in potassium phosphate buffer in a reaction started by the addition of 1 mM NADPH […]
At these time points, 20 µL was withdrawn from the reaction mixture and 80 µL cold acetonitrile (ACN) containing the internal standard tolbutamide, was added to inactivate the enzymes and precipitate the proteins. The mixture was vortexed for 30 s and centrifuged at 4 °C for 5 min at 15,000 rpm. The supernatant was stored at -80°C until analysis. For the UGT enzymes, both compounds were incubated at 5 µM together with 0.5 mg mL-1 liver microsomes in a reaction started by the addition of 2 mM UDPGA cofactor. The corresponding loss of parent compound was determined using liquid chromatography (UPLC) (Waters AquityTM) coupled with tandem quadrupole mass spectrometry (MS²) (Waters XevoTM), equipped with an electrospray ionization (ESI) interface and operated in multiple reaction monitoring (MRM) mode. […]

[3] = system: AT1-KO T. b. brucei strain (derived from BS221); assay: Susceptibility assay, TbAT1-KO (derived from BS221); format: cell-based, Trypanosoma brucei brucei
Experimental: Susceptibility assays with NY-SM[51], BS221[48] and TbAT1-KO[48] (derived from BS221) cells were performed using 10 concentrations of a 4-fold compound dilution series starting at 64 µM. Parasites were seeded at 4 × 10^3 parasites per well and exposed to drug compound for 72 h, after which resazurin (final concentration of 10 µg mL^−1) was added to the plates. Fluorescence intensities were determined after 6 h.

[4] = oral 6.25 mg kg^−1 s.i.d. for 5 days
[5] = oral 12.5 mg kg^−1 s.i.d. for 5 days
[6] = oral 25 mg kg^−1 s.i.d. for 5 days

## Nc1ncnc2c1ccn2[C@@H]1O[C@H](CO)C[C@H]1O [Compound 9, 3’-deoxytubercidin]
[1]; 6 wpi
  BLI of the head region, RLU data: 109000 RLU and 110000 RLU
[1]; 7 wpi
  BLI of the head region, RLU data: 99500 RLU and 92000 RLU
[1]; 8 wpi
  BLI of the head region, RLU data: 107000 RLU and 96700 RLU
[1]; 9 wpi
  BLI of the head region, RLU data: 90800 RLU and 104000 RLU
[1]; mouse, in vivo
  BLI follow-up of surviving mice up to 14 wpi: did not reveal any signs of relapse
[1]; [4]
  bioluminescent imaging (BLI): total clearance in all organs including the CNS
  blood parasitaemia up to 9 wpi: negative blood parasitaemia
[1]; [5]
  bioluminescent imaging (BLI): total clearance in all organs including the CNS
  blood parasitaemia up to 9 wpi: negative blood parasitaemia
[1]; oral 25 mg kg^−1 b.i.d. for 5 days
  bioluminescent imaging (BLI): total clearance of all organs, including the CNS
[1]; oral 25 mg kg^−1 b.i.d. for 5 days from 21 dpi
  blood parasitaemia and survival at 9 wpi: negative blood parasitaemia and survived the pre-set endpoint
[1]; [6]
  bioluminescent imaging (BLI): total clearance in all organs including the CNS
  blood parasitaemia up to 9 wpi: negative blood parasitaemia
[1]; tissues collected at 121 dpi
  parasite burdens in brain, spleen and fat by SL-RNA qPCR: complete absence of parasite burdens
[1]; to levels similar to a non-infected control mouse
  luminescent signal in the head region: rapid decline of the signal
T. brucei NY-SM cells; 1.4 nM
  # cells 2N: 18946 and 19862
  # cells 4N: 4825 and 4846
  # cells S: 16441 and 16011
  % of cells 2N: 44.3% and 46.2%
  % of cells 4N: 11.3%
  % of cells S: 38.5% and 37.2%
T. brucei NY-SM cells; 3.5 nM
  # cells 2N: 19884 and 19251
  # cells 4N: 4669 and 4555
  # cells S: 15056 and 15140
  % of cells 2N: 47.3% and 46.7%
  % of cells 4N: 11.1%
  % of cells S: 35.9% and 36.8%
T. brucei NY-SM cells; 7 nM
  # cells 2N: 18100 and 17699
  # cells 4N: 3787 and 3626
  # cells S: 10717 and 10604
  % of cells 2N: 51.1% and 50%
  % of cells 4N: 10.7% and 10.2%
  % of cells S: 30.2% and 29.9%
T. brucei NY-SM cells; 24 h, various concentrations
  cell cycle analysis: impact on DNA synthesis: no major impact on DNA synthesis
[2]; microsomes, 0 min, 5 µM
  % analogue remaining, EXP 1 / EXP 2: 100%
  % analogue remaining, Mean: 100%
[2]; s9, 0.5 h
  metabolic stability: metabolically stable
[3]; TbAT1KO, 0.000976563 µM
  Inhibition (%): 0% and 2%
[3]; TbAT1KO, 0.00390625 µM
  Inhibition (%): 5% and 10% and 0%
[3]; TbAT1KO, 0.25 µM
  Inhibition (%): 89% and 94% and 60% and 62%
[3]; TbAT1KO, 64 µM
  Inhibition (%): 100%
[3]; Trypanosoma brucei, TbAT1KO, 1 µM
  inhibition at 1 µM: 98%
[3]; Trypanosoma brucei, TbAT1KO, 4 µM
  inhibition at 4 µM: 99%
[3]; Trypanosoma brucei, TbAT1KO, 16 µM
  inhibition at 16 µM: 99%
[3]; Trypanosoma brucei, TbAT1KO, 64 µM
  inhibition at 64 µM: 99%
[3]; Trypanosoma brucei, read-out: EC50 upon AT1-KO
  EC50: 0.15 ± 0.03 µM
